Values joined by “and” are separate entries in the source; they are usually repeats but may differ in a detail not shown here. Equal values may be shown once. Toxic doses and inconclusive results are not listed. Cut-off read from the data, not from the text of the source: active = T/C of 150% or more; inactive = T/C below 125%.
Test system: L1210 leukemia ip in BDF1 mice, survival T/C
Test: NCI In Vivo Anticancer Drug Screen. Data for tumor model L1210 Leukemia (intraperitoneal) in B6D2F1 (BDF1) mice
Settings: endpoint: mean survival time, higher = longer survival
Protocol: The antitumor activity of compounds was measured in mice bearing transplantable tumors. Survival or tumor size were measured and the results are expressed as the measurement made in the treated group (T) divided by the measurement made in the vehicle treated control group (C). The tumor model used in this assay is L1210 Leukemia (intraperitoneal) in B6D2F1 (BDF1) mice

[1] = dose: 100.0 mg/kg/injection, schedule: Q01DX009 (ip), vehicle: Klucel (hydroxypropylcellulose) (HPC)
[2] = dose: 200.0 mg/kg/injection, schedule: Q01DX009 (ip), vehicle: Klucel (hydroxypropylcellulose) (HPC)
[3] = dose: 400.0 mg/kg/injection, schedule: Q01DX009 (ip), vehicle: Klucel (hydroxypropylcellulose) (HPC)
[4] = dose: 100.0 mg/kg/injection, schedule: Q04DX002 (ip), vehicle: Klucel (hydroxypropylcellulose) (HPC)
[5] = dose: 200.0 mg/kg/injection, schedule: Q04DX002 (ip), vehicle: Klucel (hydroxypropylcellulose) (HPC)
[6] = dose: 400.0 mg/kg/injection, schedule: Q04DX002 (ip), vehicle: Klucel (hydroxypropylcellulose) (HPC)
[7] = dose: 100.0 mg/kg/injection, schedule: Q01DX001 (ip), vehicle: other
[8] = dose: 200.0 mg/kg/injection, schedule: Q01DX001 (ip), vehicle: other
[9] = dose: 400.0 mg/kg/injection, schedule: Q01DX001 (ip), vehicle: other
[10] = dose: 100.0 mg/kg/injection, schedule: Q04DX003 (ip), vehicle: saline
[11] = dose: 100.0 mg/kg/injection, schedule: Q01DX009 (ip), vehicle: saline with Tween-80
[12] = dose: 100.0 mg/kg/injection, schedule: Q04DX003 (ip), vehicle: saline with Tween-80
[13] = dose: 200.0 mg/kg/injection, schedule: Q01DX009 (ip), vehicle: saline with Tween-80
[14] = dose: 200.0 mg/kg/injection, schedule: Q04DX003 (ip), vehicle: saline with Tween-80
[15] = dose: 400.0 mg/kg/injection, schedule: Q04DX003 (ip), vehicle: saline with Tween-80

Measured: T/C

CC1(C)N=C(N)N=C(N)N1c1cccc(C(=O)O)c1
inactive: dose: 25.0 mg/kg/injection, schedule: Q01DX001 (ip), vehicle: saline 100 % of control | dose: 50.0 mg/kg/injection, schedule: Q01DX001 (ip), vehicle: saline 102 % of control | dose: 100.0 mg/kg/injection, schedule: Q01DX001 (ip), vehicle: saline 105 % of control

COC(=O)c1ccccc1NC(=O)Cc1ccccc1
inactive: [1] 91 % of control | [2] 98 % of control | [3] 98 % of control

N=Nc1c2ccccc2c2nc3c(N)[nH]nc(N)c3nc12
inactive: [4] 107 % of control | [5] 103 % of control | [6] 100 % of control

COC(=O)c1[nH]cnc1/N=N/Nc1ccc(Cl)c(Cl)c1
inactive: dose: 50.0 mg/kg/injection, schedule: Q01DX001 (ip), vehicle: other 94 % of control | [7] 95 % of control and 103 % of control | [8] 105 % of control and 110 % of control | [9] 97 % of control and 100 % of control

C=CC(OC(C)=O)OC(C)=O
inactive: dose: 2.8 mg/kg/injection, schedule: Q01DX Z (ip), vehicle: carboxymethylcellulose (CMC) 94 % of control | dose: 4.2 mg/kg/injection, schedule: Q01DX Z (ip), vehicle: carboxymethylcellulose (CMC) 95 % of control | dose: 6.2 mg/kg/injection, schedule: Q01DX Z (ip), vehicle: carboxymethylcellulose (CMC) 93 % of control | dose: 6.25 mg/kg/injection, schedule: Q01DX009 (ip), vehicle: saline with Tween-80 91 % of control | dose: 6.25 mg/kg/injection, schedule: Q01DX Z (ip), vehicle: carboxymethylcellulose (CMC) 89 % of control | dose: 9.4 mg/kg/injection, schedule: Q01DX Z (ip), vehicle: carboxymethylcellulose (CMC) 98 % of control and 111 % of control | dose: 12.5 mg/kg/injection, schedule: Q01DX009 (ip), vehicle: saline with Tween-80 104 % of control | dose: 12.5 mg/kg/injection, schedule: Q04DX003 (ip), vehicle: saline with Tween-80 103 % of control | dose: 25.0 mg/kg/injection, schedule: Q01DX009 (ip), vehicle: saline with Tween-80 110 % of control | dose: 25.0 mg/kg/injection, schedule: Q04DX003 (ip), vehicle: saline with Tween-80 111 % of control

NC1CC(N)CC(N)C1 (stereo not drawn)
inactive: dose: 25.0 mg/kg/injection, schedule: Q04DX003 (ip), vehicle: saline 92 % of control | dose: 50.0 mg/kg/injection, schedule: Q04DX003 (ip), vehicle: saline 99 % of control | [10] 86 % of control and 91 % of control

Cc1c(/C=C(\C#N)c2ccc([N+](=O)[O-])cc2)c(=O)n(-c2ccccc2)n1C
inactive: dose: 100.0 mg/kg/injection, schedule: Q01DX009 (ip), vehicle: gum acacia 93 % of control | dose: 100.0 mg/kg/injection, schedule: Q04DX003 (ip), vehicle: gum acacia 92 % of control | dose: 200.0 mg/kg/injection, schedule: Q01DX009 (ip), vehicle: gum acacia 90 % of control | dose: 200.0 mg/kg/injection, schedule: Q04DX003 (ip), vehicle: gum acacia 105 % of control | dose: 400.0 mg/kg/injection, schedule: Q01DX009 (ip), vehicle: gum acacia 89 % of control | dose: 400.0 mg/kg/injection, schedule: Q04DX003 (ip), vehicle: gum acacia 95 % of control

O=[N+]([O-])CC(NNC(C[N+](=O)[O-])C(Cl)(Cl)Cl)C(Cl)(Cl)Cl (stereo not drawn)
inactive: [11] 96 % of control | [12] 89 % of control | [13] 91 % of control | [14] 94 % of control | [15] 90 % of control

C=C(C)C1CC=C(C=O)CC1 (stereo not drawn)
inactive: dose: 100.0 mg/kg/injection, schedule: Q01DX001 (ip), vehicle: Klucel (hydroxypropylcellulose) (HPC) 93 % of control | [1] 94 % of control | dose: 100.0 mg/kg/injection, schedule: Q04DX003 (ip), vehicle: Klucel (hydroxypropylcellulose) (HPC) 101 % of control | dose: 200.0 mg/kg/injection, schedule: Q01DX001 (ip), vehicle: Klucel (hydroxypropylcellulose) (HPC) 92 % of control | [2] 109 % of control | dose: 200.0 mg/kg/injection, schedule: Q04DX003 (ip), vehicle: Klucel (hydroxypropylcellulose) (HPC) 98 % of control | dose: 400.0 mg/kg/injection, schedule: Q01DX001 (ip), vehicle: Klucel (hydroxypropylcellulose) (HPC) 92 % of control | dose: 400.0 mg/kg/injection, schedule: Q04DX003 (ip), vehicle: Klucel (hydroxypropylcellulose) (HPC) 101 % of control

Cc1ccc([N+](=O)[O-])cc1NC(=O)N(C1CCCCC1)C1CCCCC1
inactive: [1] 95 % of control | [2] 97 % of control | [3] 97 % of control

CC(C)(O)C(O)C(=O)O (stereo not drawn)
inactive: dose: 100.0 mg/kg/injection, schedule: Q01DX009 (ip), vehicle: saline 92 % of control | [10] 106 % of control | dose: 200.0 mg/kg/injection, schedule: Q01DX009 (ip), vehicle: saline 89 % of control | dose: 200.0 mg/kg/injection, schedule: Q04DX003 (ip), vehicle: saline 104 % of control | dose: 400.0 mg/kg/injection, schedule: Q04DX003 (ip), vehicle: saline 97 % of control

O=C(O)c1ccccc1C(=O)OC1C=CC2CCC1C2 (stereo not drawn)
inactive: dose: 100.0 mg/kg/injection, schedule: Q01DX001 (ip), vehicle: carboxymethylcellulose (CMC) 112 % of control | dose: 200.0 mg/kg/injection, schedule: Q01DX001 (ip), vehicle: carboxymethylcellulose (CMC) 90 % of control | dose: 400.0 mg/kg/injection, schedule: Q01DX001 (ip), vehicle: carboxymethylcellulose (CMC) 96 % of control

Nc1ccc(S(=O)(=O)c2ccc(NCC(=O)O)cc2)cc1
inactive: dose: 50.0 mg/kg/injection, schedule: Q01DX009 (ip), vehicle: saline with Tween-80 105 % of control | [11] 101 % of control | [12] 89 % of control | [13] 92 % of control | [14] 92 % of control

C#CCCCCCCC#CCCCCCCC#C
inactive: dose: 100.0 mg/kg/injection, schedule: Q04DX003 (ip), vehicle: acetone 100 % of control | dose: 200.0 mg/kg/injection, schedule: Q04DX003 (ip), vehicle: acetone 110 % of control

C=C(COc1ccc(Cl)cc1)COc1ccc(Cl)cc1
inactive: dose: 12.5 mg/kg/injection, schedule: Q04DX002 (ip), vehicle: other 115 % of control and 117 % of control | dose: 50.0 mg/kg/injection, schedule: Q04DX003 (ip), vehicle: other 98 % of control and 107 % of control | [7] 95 % of control and 99 % of control | dose: 100.0 mg/kg/injection, schedule: Q04DX003 (ip), vehicle: other 96 % of control and 113 % of control | [8] 96 % of control and 98 % of control | dose: 200.0 mg/kg/injection, schedule: Q04DX003 (ip), vehicle: other 93 % of control and 106 % of control | [9] 91 % of control | dose: 400.0 mg/kg/injection, schedule: Q04DX003 (ip), vehicle: other 95 % of control and 113 % of control

COC(=O)C(=O)CC(=O)c1ccc([N+](=O)[O-])cc1
inactive: [4] 95 % of control | [5] 95 % of control | [6] 103 % of control

Cc1cccc(NC(=S)/C(=C(/[O-])c2ccccc2)[n+]2ccc3ccccc3c2)c1
inactive: dose: 100.0 mg/kg/injection, schedule: Q04DX002 (ip), vehicle: saline with Tween-80 98 % of control | dose: 200.0 mg/kg/injection, schedule: Q04DX002 (ip), vehicle: saline with Tween-80 98 % of control | dose: 400.0 mg/kg/injection, schedule: Q04DX002 (ip), vehicle: saline with Tween-80 91 % of control

CCC1NCCc2cc(OC)c(O)cc21 (stereo not drawn)
inactive: dose: 75.0 mg/kg/injection, schedule: Q01DX001 (ip), vehicle: saline 106 % of control | dose: 150.0 mg/kg/injection, schedule: Q01DX001 (ip), vehicle: saline 100 % of control

Nc1nc2ncc(CNc3ccc(CCC(=O)NC(CCC(=O)O)C(=O)O)cc3)nc2c(=O)[nH]1 (stereo not drawn)
inactive: dose: 50.0 mg/kg/injection, schedule: Q01DX001 (ip), vehicle: saline with Tween-80 108 % of control | dose: 100.0 mg/kg/injection, schedule: Q01DX001 (ip), vehicle: saline with Tween-80 100 % of control | dose: 200.0 mg/kg/injection, schedule: Q01DX001 (ip), vehicle: saline with Tween-80 101 % of control

CC(=O)Oc1ccc(OC(C)=O)c2c1C(=O)CCCC2=O
inactive: [11] 101 % of control | [12] 91 % of control | [13] 93 % of control | [14] 91 % of control | dose: 400.0 mg/kg/injection, schedule: Q01DX009 (ip), vehicle: saline with Tween-80 96 % of control | [15] 96 % of control
